Values quoted from earlier work in patent publication US20110257090A1, “SOLUTIONS FOR VOLUME THERAPY” (FRESENIUS KABI DEUTSCHLAND GMBH, priority 2008, published 2011).

System: cultured mammalian cells
Details: long-term studies

O=S(=O)(O)CCN(CCO)CCO [BES, N,N-bis(2-hydroxyethyl)-2-aminoethanesulfonic acid]
toxicity to cultured mammalian cells: non-toxic
